One data set relates to AMPA receptor. The experiment in a line: In vivo electrophysiology: field EPSP amplitude in the dentate gyrus of anesthetized animals. More on the design: species or system rat. Here is the method: A. Enhancement of AMPA Receptor Function In Vivo.
Synaptic responses mediated by AMPA receptors are increased according to the method of the invention, using the compounds described herein.
(§1) The electrophysiological effects of the invention compounds were tested in vivo in anesthetized animals according to the following procedures. Animals are maintained under anesthesia by phenobarbital administered using a Hamilton syringe pump. Stimulating and recording electrodes are inserted into the perforant path and dentate gyrus of the hippocampus, respectively. Once electrodes are implanted, a stable baseline of evoked responses are elicited using single monophasic pulses (100 μs pulse duration) delivered at 3/min to the stimulating electrode. Field EPSPs are monitored until a stable baseline is achieved (about 20-30 min), after which a solution of test compound is injected intraperitoneally and evoked field potentials are recorded. Evoked potentials were recorded for approximately 2 h following drug administration or until the amplitude of the field EPSP returns to baseline. In the latter instance, it is common that an iv administration is also carried out with an appropriate dose of the same test compound. Invention compounds were assayed in the in vivo electrophysiology assay described above and data for representative test compounds is shown in column 1 in Table 1.
The electrophysiological effects of invention compounds were tested in vivo in anesthetized animals according to the following procedures.
as §1, with “Animals” for “The electrophysiological effects of the invention compounds were tested in vivo in anesthetized animals according to the following procedures. Animals”, “are” for “were”, “compound.” for “compound. Invention compounds were assayed in the in vivo electrophysiology assay described above and data for representative test compounds is shown in column 1 in Table 1.”

For data set [1], the system named is d-amphetamine stimulated locomotion in mice. The experiment in a line: Inhibition of d-amphetamine stimulated locomotion. It is filed as in vivo. The conditions noted are these: Mus musculus, ip, 18 mpk i.p., d-amphetamine 2 mg/kg. On the procedure:
B. Behavioral Testing: Inhibition of d-Amphetamine Stimulated Locomotion
The ability of the invention compounds to inhibit d-Amphetamine stimulated locomotor activity was assayed according to the following procedure. Male CD1 mice, 25-30 gm body weight, were brought into the experimental room and allowed at least 30 min of acclimation. Each mouse was placed into the testing enclosure with an infrared beam array that automatically monitors the animal's activity. Mice were habituated in the testing enclosure for 20 min, and then returned to their home cage. Mice were dosed intraperitoneally with test compound in appropriate vehicle 5 minutes before d-Amphetamine injection (2 mpk). Ten minutes after d-Amphetamine injection, mice were tested for locomotor activity for a total of […]. The data was computer collected and expressed as “arbitrary movement units.” All data were analyzed by comparing the groups treated with the test compound to the vehicle control group. The data shown is the % inhibition of hyperactivity induced by acute administration of 2 mg/kg d-amphetamine in mice. The compounds tested produced a statistically significant inhibition of d-amphetamine stimulated locomotion.
Male CD1 mice, 25-30 gm body weight, were brought into the experimental room and allowed at least 30 min of acclimation. Each mouse was placed into the testing enclosure with an infrared beam array that automatically monitors the animal's activity. Mice were habituated in the testing enclosure for 20 min, and then returned to their home cage. Mice were dosed intraperitoneally with test compound in appropriate vehicle 5 minutes before d-Amphetamine injection. Ten minutes after d-Amphetamine injection, mice were tested for locomotor activity for a total of 15 minutes. The data was computer collected and expressed as “arbitrary movement units.” All data were analyzed by comparing the groups treated with the test compound to the vehicle control group.

The mark [2] stands for this setting: dosed intravenously (footnote 3).

Each structure is given as a SMILES string.

This note sets out measurements from patent publication US8642633B2, “Di-substituted amides for enhancing glutamatergic synaptic responses” (Cortex Pharmaceutical, Inc., priority 2007, dated 2014).

As to `CN(C(=O)c1ccc2nonc2c1)C1CCOC(O)C1` (stereo not shown) [Example 69, N-(2-Hydroxytetrahydro-2H-pyran-4-yl)-N-methyl-[2,1,3]-benzoxadiazole-5-carboxamide], the melting point (in general, the temperature, or range, at which the solid turns liquid) was under 90 °C.
Consider `CN(C(=O)c1ccc2nonc2c1)C1CC=C(F)CC1` (stereo not shown) [Example 41, N-(4-fluorocyclohex-3-en-1-yl)-N-methyl-[2,1,3]-benzoxadiazole-5-carboxamide], for which the melting point fell in the range of 117 to 118 °C. For the same compound, the “In vivo Electrophysiology: % increase in the amplitude of the field EPSP in the dentate gyrus of rat” value (from here on “In vivo Electrophysiology: % increase”) in the data set with AMPA receptor (10mpk i.p.) is recorded as 18%. In addition, in data set [1], testing at 18 mg/kg gave an inhibition in vivo of 67%.
Consider `CN(C(=O)c1ccc2nonc2c1)[C@H]1CC[C@H](C#N)CC1` [Example 11, N-(trans-4-cyanocyclohexyl)-N-methyl-[2,1,3]-benzoxadiazole-5-carboxamide], for which the “In vivo Electrophysiology: % increase” value in the data set with AMPA receptor (10mpk i.p.) is 12%.
`O=C(c1ccc2nonc2c1)N(CC(F)(F)F)C1CCOCC1` [Example 25, N-Tetrahydro-2H-pyran-4-yl-N-(2,2,2-trifluoroethyl)-[2,1,3]-benzoxadiazole-5-carboxamide]: the melting point was 134 to 135 °C. The “In vivo Electrophysiology: % increase” value in the data set with AMPA receptor (setting [2]) is listed as 10%^3.
Regarding `CO[C@H]1CC[C@H](N(C)C(=S)c2ccc3nonc3c2)CC1` [Example 54, N-(trans-4-Methoxycyclohexyl)-N-methyl-[2,1,3]-benzoxadiazole-5-carbothioamide], the “In vivo Electrophysiology: % increase” value in the data set with AMPA receptor (setting [2]) was determined as 18%^3.
Consider `CO[C@H]1CC[C@H](N(C)C(=O)c2ccc3nonc3c2)CC1` [Example 53, N-(trans-4-Methoxycyclohexyl)-N-methyl-[2,1,3]-benzoxadiazole-5-carboxamide], for which the “In vivo Electrophysiology: % increase” value in the data set on AMPA receptor (10mpk i.p.) was found to be 17%. Besides, in data set [1], 18 mg/kg produced 94% inhibition in vivo.
On to `O=C(c1ccc2nccnc2c1)N1CCCCC1` [CX516, 1-(quinoxalin-6-ylcarbonyl)piperidine, reference compound], for which the “increase in amplitude of the field EPSP” value with AMPA receptor (rat dentate gyrus, 50 mg/kg i.p.) came to 9%.
`CN(C(=O)c1ccc2nonc2c1)[C@H]1CC[C@H](O)CC1` [Example 51, N-(4-trans-Hydroxycyclohexyl)-N-methyl-[2,1,3]-benzoxadiazole-5-carboxamide]: the “In vivo Electrophysiology: % increase” value with AMPA receptor (10mpk i.p.) turned out to be 21%. Moreover, in data set [1], testing at 18 mg/kg gave an inhibition in vivo of 100%.
Consider `CN(C(=O)c1ccc2nonc2c1)C1CCOCC1` [Example 12, N-Methyl-N-tetrahydro-2H-pyran-4-yl-[2,1,3]-benzoxadiazole-5-carboxamide], for which the “In vivo Electrophysiology: % increase” value with AMPA receptor (10mpk i.p.) is reported as 20%. In addition, the inhibition in vivo (in general, the percentage by which the read-out fell short of the control) at 18 mg/kg in data set [1] came to 66%.
For `CN(C(=O)c1ccc2nonc2c1)[C@H]1CC[C@@H](C#N)CC1` [Example 10, N-(cis-4-Cyanocyclohexyl)-N-methyl-[2,1,3]-benzoxadiazole-5-carboxamide], the melting point lay within 222 to 223 °C.
Still for that read-out and setting: the value for `CN(C(=O)c1ccc2nonc2c1)C1CCCCC1(F)F` (stereo not shown) [Example 65, N-Methyl-N-(2,2-difluorocyclohexyl)-[2,1,3]-benzoxadiazole-5-carboxamide] was 101 to 102 °C.
Regarding `CN(C(=O)c1ccc2nonc2c1)C1CCSCC1` [Example 33, N-Methyl-N-(tetrahydro-2H-thiopyran-4-yl)-[2,1,3]-benzoxadiazole-5-carboxamide], in the data set with AMPA receptor (setting [2]), the “In vivo Electrophysiology: % increase” value is reported as 16%^3.
`CCN(C(=O)c1ccc2nonc2c1)C1CCOCC1` [Example 17, N-Ethyl-N-tetrahydro-2H-pyran-4-yl-[2,1,3]-benzoxadiazole-5-carboxamide] came in with a melting point of 102 to 104 °C. Besides, the “In vivo Electrophysiology: % increase” value with AMPA receptor (10mpk i.p.) turned out to be 12%. Also, in data set [1], the inhibition in vivo at 18 mg/kg came to 23%.
In turn, `CN(C(=O)c1ccc2nonc2c1)C1CCOC(=O)C1` (stereo not shown) [Example 68, N-Methyl-N-(2-oxotetrahydro-2H-pyran-4-yl)-[2,1,3]-benzoxadiazole-5-carboxamide] registered a melting point of 169 to 171 °C.
For the compound `CN(C(=O)c1ccc2nonc2c1)C1CCC(F)(F)CC1` [Example 40, N-(4,4-Difluorocyclohexyl)-N-methyl-[2,1,3]-benzoxadiazole-5-carboxamide], the melting point was in the range of 137 to 138 °C. Also, the “In vivo Electrophysiology: % increase” value with AMPA receptor (10mpk i.p.) is recorded as 18%. In addition, the inhibition in vivo at 18 mg/kg in data set [1] stood at 84%.
On to `CN(C(=O)c1ccc2nonc2c1)[C@H]1CC[C@H](n2ncnn2)CC1` [Example 56, N-Methyl-N-[trans-4-(2H-tetrazol-2-yl)cyclohexyl]-[2,1,3]-benzoxadiazole-5-carboxamide], for which, in the data set with AMPA receptor (10mpk i.p.), the “In vivo Electrophysiology: % increase” value is reported as 19%.
As for `O=C(NC1CCCOC1)c1ccc2nonc2c1` (stereo not shown) [Example 15, N-(Tetrahydro-2H-pyran-3-yl)-[2,1,3]-benzoxadiazole-5-carboxamide], the melting point was 204 to 205 °C.
`CN1CCC(N(C)C(=O)c2ccc3nonc3c2)CC1` [Example 28, N-Methyl-N-(1-methylpiperidin-4-yl)-[2,1,3]-benzoxadiazole-5-carboxamide] registered a melting point of over 260 °C.
For `CN(C(=O)c1ccc2nonc2c1)C1CCCC(F)(F)C1` (stereo not shown) [Example 62, N-Methyl-N-(3,3-difluorocyclohexyl)-[2,1,3]-benzoxadiazole-5-carboxamide], the melting point lay within 119 to 120 °C.
In turn, `O=C(c1ccc2nonc2c1)N(C1CCOCC1)C1CC1` [Example 24, N-Cyclopropyl-N-tetrahydro-2H-pyran-4-yl-[2,1,3]-benzoxadiazole-5-carboxamide] displayed a melting point of 108 to 109 °C.
Still for that read-out and setting: the value for `CN(Cc1ccccc1)C(=O)c1ccc2nonc2c1` [Example 20, N-Benzyl-N-methyl-[2,1,3]-benzoxadiazole-5-carboxamide] was 105 to 106 °C.
On to `O=C(NC1CCOC(O)C1)c1ccc2nonc2c1` (stereo not shown) [Example 66, N-(2-Hydroxytetrahydro-2H-pyran-4-yl)-[2,1,3]-benzoxadiazole-5-carboxamide], for which the melting point lay within 91 to 92 °C.
For `CN(CC1CCCCC1)C(=O)c1ccc2nonc2c1` [Example 19, N-(Cyclohexylmethyl)-N-methyl-[2,1,3]-benzoxadiazole-5-carboxamide], the melting point was 71 to 72 °C.
Same read-out and setting: the same measure for `CN(C(=O)c1ccc2nonc2c1)C1CCN(C(=O)OC(C)(C)C)CC1` [Example 26, tert-Butyl-4-[([2,1,3]-benzoxadiazol-5-ylcarbonyl)(methyl)amino]piperidine-1-carboxylate]: 98 to 100 °C.
Consider `CN(C(=O)c1ccc2nonc2c1)[C@@H]1CCOC1` [Example 73, N-Methyl-N—(R)-tetrahydrofuran-3-yl-[2,1,3]-benzoxadiazole-5-carboxamide], for which the “In vivo Electrophysiology: % increase” value in the data set with AMPA receptor (10mpk i.p.) is 13%.
As for `CN(C(=O)c1ccc2nonc2c1)C1CCCC1` [Example 5, N-Cyclopentyl-N-methyl-[2,1,3]-benzoxadiazole-5-carboxamide], the melting point was 110 to 111 °C. In the data set on AMPA receptor (10mpk i.p.), the “In vivo Electrophysiology: % increase” value amounted to 15%.
In turn, `CN(C(=O)c1ccc2nccnc2c1)C1CCOCC1` [Example 36, N-Methyl-N-tetrahydro-2H-pyran-4-ylquinoxaline-6-carboxamide] registered a melting point of 130 to 131 °C. In the data set with AMPA receptor (setting [2]), the “In vivo Electrophysiology: % increase” value stood at 5%^3.
In turn, `CCN(C(=O)c1ccc2nonc2c1)C1CCCCC1` [Example 18, N-Cyclohexyl-N-ethyl-[2,1,3]-benzoxadiazole-5-carboxamide] displayed a melting point of 51 to 52 °C.
